# From patent US20230248741A1, “Compositions and Methods for Lowering Triglycerides in a Subject with Reduced Kidney Function and Diabetes Mellitus” (Amarin Pharmaceuticals Ireland Limited, priority 2018, published 2023)
# Legend:
# [1] = Essential fatty acids in plasma and RBC by gas chromatography, 6-week AAMI study; format: in vivo, human
# Method: Blood samples (10 mL) were collected at Visit 1 (screening) and at Visits 4, 5, and 6. Analysis was performed by MSR Lipid Analysis, Scottish Crop Research Institute, Dundee, UK. The screening sample acted as baseline for the EFA measurements. Lipid was extracted from plasma, serum, and RBC suspensions and converted into fatty acid methyl esters which were analyzed by gas chromatography to give fatty acid profiles as micrograms fatty acid per gram of sample (mFA/g) and normalized area percent.
# RBC and plasma EFA data were collected at baseline, Day 14, 28, and 42 and summarized by visit for each treatment group. Change from baseline and percent change from baseline were also summarized. ANCOVA comparison of E-EPA dose groups and E-EPA versus placebo was performed.
# Notable changes for these parameters occurred in the E-EPA treatment groups at Days 14, 28, and 42 compared to placebo.
# [2] = tested on: patients with diabetes mellitus and eGFR <90 mL/min/1.73 m^2 for ≥3 months; assay: ANCHOR post-hoc (diabetes mellitus, eGFR <90): adverse events and renal parameters; format: in vivo, human
# Method: Safety assessments will include adverse events, clinical laboratory measurements (chemistry, hematology, and urinalysis), 12-lead electrocardiograms (ECGs), vital signs, and physical examinations.
# CVD-related (e.g., atherogenic) parameters were analyzed in a post-hoc study of 198 patients from the multi-center, placebo-controlled, randomized double-blind, 12-week study described in Example 1. These 198 patients have reduced kidney reduced function (e.g., eGFR<90 mL/min/1.73 m^2 for ≥3 months) and diabetes mellitus.
# In this study, 6 patients in the placebo group discontinued (i.e., withdrawal with consent [n=2]; adverse event [n=2]; death [n=1]; other reason [n=1] and 4 patients from the 4 g/day group discontinued (i.e., adverse event [n=3] and other reason [n=1]). The death in the placebo group was due to myocardial infarction and not considered to be assigned to the investigational agent.
compound,measurement,setting,value
"CC/C=C\C/C=C\C/C=C\C/C=C\C/C=C\CCCC(=O)OCC [E-EPA, ethyl eicosapentaenoate]",AA Plasma Mean change from Baseline,"[1]; 1 g daily, Day 14",-9.7 µg/g
same,AA RBC Mean change from Baseline,"[1]; 1 g daily, Day 14",-8.1 µg/g
same,DGLA Plasma Mean change from Baseline,"[1]; 1 g daily, Day 14",-10.4 µg/g
same,DGLA RBC Mean change from Baseline,"[1]; 1 g daily, Day 14",-2.7 µg/g
same,DHA Plasma Mean change from Baseline,"[1]; 1 g daily, Day 14",-6.4 µg/g
same,DHA RBC Mean change from Baseline,"[1]; 1 g daily, Day 14",-4.6 µg/g
same,DPAn-3 Plasma Mean change from Baseline,"[1]; 1 g daily, Day 14",7.5 µg/g
same,DPAn-3 RBC Mean change from Baseline,"[1]; 1 g daily, Day 14",0.9 µg/g
same,AA Plasma Mean change from Baseline,"[1]; 1 g daily, Day 28",-11.3 µg/g
same,AA RBC Mean change from Baseline,"[1]; 1 g daily, Day 28",-17.0 µg/g
same,DGLA Plasma Mean change from Baseline,"[1]; 1 g daily, Day 28",-10.6 µg/g
same,DGLA RBC Mean change from Baseline,"[1]; 1 g daily, Day 28",-3.8 µg/g
same,DHA Plasma Mean change from Baseline,"[1]; 1 g daily, Day 28",-6.6 µg/g
same,DHA RBC Mean change from Baseline,"[1]; 1 g daily, Day 28",-6.4 µg/g
same,DPAn-3 Plasma Mean change from Baseline,"[1]; 1 g daily, Day 28",8.9 µg/g
same,DPAn-3 RBC Mean change from Baseline,"[1]; 1 g daily, Day 28",3.3 µg/g
same,AA Plasma Mean change from Baseline,"[1]; 1 g daily, Day 42",-8.7 µg/g
same,AA RBC Mean change from Baseline,"[1]; 1 g daily, Day 42",-14.2 µg/g
same,DGLA Plasma Mean change from Baseline,"[1]; 1 g daily, Day 42",-9.4 µg/g
same,DGLA RBC Mean change from Baseline,"[1]; 1 g daily, Day 42",-3.5 µg/g
same,DHA Plasma Mean change from Baseline,"[1]; 1 g daily, Day 42",-5.4 µg/g
same,DHA RBC Mean change from Baseline,"[1]; 1 g daily, Day 42",-7.0 µg/g
same,DPAn-3 Plasma Mean change from Baseline,"[1]; 1 g daily, Day 42",11.3 µg/g
same,DPAn-3 RBC Mean change from Baseline,"[1]; 1 g daily, Day 42",6.5 µg/g
same,AA Plasma Baseline Mean,"[1]; 1 g daily, baseline",202.5 µg/g
same,AA RBC Baseline Mean,"[1]; 1 g daily, baseline",171.2 µg/g
same,DGLA Plasma Baseline Mean,"[1]; 1 g daily, baseline",51.2 µg/g
same,DGLA RBC Baseline Mean,"[1]; 1 g daily, baseline",23.0 µg/g
same,DHA Plasma Baseline Mean,"[1]; 1 g daily, baseline",73.1 µg/g
same,DHA RBC Baseline Mean,"[1]; 1 g daily, baseline",66.5 µg/g
same,DPAn-3 Plasma Baseline Mean,"[1]; 1 g daily, baseline",21.1 µg/g
same,DPAn-3 RBC Baseline Mean,"[1]; 1 g daily, baseline",34.1 µg/g
same,"AA Plasma LS Mean, 1 or 2 g versus 4 g",[1]; 1 g versus 4 g,4.2 µg/g
same,"AA RBC LS Mean, 1 or 2 g versus 4 g",[1]; 1 g versus 4 g,8.4 µg/g
same,"DGLA Plasma LS Mean, 1 or 2 g versus 4 g",[1]; 1 g versus 4 g,3.7 µg/g
same,"DGLA RBC LS Mean, 1 or 2 g versus 4 g",[1]; 1 g versus 4 g,1.5 µg/g
same,"DHA Plasma LS Mean, 1 or 2 g versus 4 g",[1]; 1 g versus 4 g,-0.8 µg/g
same,"DHA RBC LS Mean, 1 or 2 g versus 4 g",[1]; 1 g versus 4 g,1.0 µg/g
same,"DPAn-3 Plasma LS Mean, 1 or 2 g versus 4 g",[1]; 1 g versus 4 g,-15.1 µg/g
same,"DPAn-3 RBC LS Mean, 1 or 2 g versus 4 g",[1]; 1 g versus 4 g,-6.2 µg/g
same,AA Plasma Mean change from Baseline,"[1]; 2 g daily, Day 14",-13.9 µg/g
same,AA RBC Mean change from Baseline,"[1]; 2 g daily, Day 14",-3.1 µg/g
same,DGLA Plasma Mean change from Baseline,"[1]; 2 g daily, Day 14",-14.1 µg/g
same,DGLA RBC Mean change from Baseline,"[1]; 2 g daily, Day 14",-2.6 µg/g
same,DHA Plasma Mean change from Baseline,"[1]; 2 g daily, Day 14",-5.4 µg/g
same,DHA RBC Mean change from Baseline,"[1]; 2 g daily, Day 14",-2.0 µg/g
same,DPAn-3 Plasma Mean change from Baseline,"[1]; 2 g daily, Day 14",17.4 µg/g
same,DPAn-3 RBC Mean change from Baseline,"[1]; 2 g daily, Day 14",5.6 µg/g
same,AA Plasma Mean change from Baseline,"[1]; 2 g daily, Day 28",21.6 µg/g
same,AA RBC Mean change from Baseline,"[1]; 2 g daily, Day 28",-14.1 µg/g
same,DGLA Plasma Mean change from Baseline,"[1]; 2 g daily, Day 28",-16.2 µg/g
same,DGLA RBC Mean change from Baseline,"[1]; 2 g daily, Day 28",-4.5 µg/g
same,DHA Plasma Mean change from Baseline,"[1]; 2 g daily, Day 28",-8.1 µg/g
same,DHA RBC Mean change from Baseline,"[1]; 2 g daily, Day 28",-6.2 µg/g
same,DPAn-3 Plasma Mean change from Baseline,"[1]; 2 g daily, Day 28",19.4 µg/g
same,DPAn-3 RBC Mean change from Baseline,"[1]; 2 g daily, Day 28",9.4 µg/g
same,AA Plasma Mean change from Baseline,"[1]; 2 g daily, Day 42",-27.3 µg/g
same,AA RBC Mean change from Baseline,"[1]; 2 g daily, Day 42",-18.8 µg/g
same,DGLA Plasma Mean change from Baseline,"[1]; 2 g daily, Day 42",-17.3 µg/g
same,DGLA RBC Mean change from Baseline,"[1]; 2 g daily, Day 42",-5.3 µg/g
same,DHA Plasma Mean change from Baseline,"[1]; 2 g daily, Day 42",-6.0 µg/g
same,DHA RBC Mean change from Baseline,"[1]; 2 g daily, Day 42",-6.3 µg/g
same,DPAn-3 Plasma Mean change from Baseline,"[1]; 2 g daily, Day 42",19.3 µg/g
same,DPAn-3 RBC Mean change from Baseline,"[1]; 2 g daily, Day 42",13.2 µg/g
same,AA Plasma Baseline Mean,"[1]; 2 g daily, baseline",227.3 µg/g
same,AA RBC Baseline Mean,"[1]; 2 g daily, baseline",172.8 µg/g
same,DGLA Plasma Baseline Mean,"[1]; 2 g daily, baseline",53.5 µg/g
same,DGLA RBC Baseline Mean,"[1]; 2 g daily, baseline",23.0 µg/g
same,DHA Plasma Baseline Mean,"[1]; 2 g daily, baseline",75.1 µg/g
same,DHA RBC Baseline Mean,"[1]; 2 g daily, baseline",64.8 µg/g
same,DPAn-3 Plasma Baseline Mean,"[1]; 2 g daily, baseline",19.7 µg/g
same,DPAn-3 RBC Baseline Mean,"[1]; 2 g daily, baseline",33.2 µg/g
same,"AA Plasma LS Mean, 1 or 2 g versus 4 g",[1]; 2 g versus 4 g,15.6 µg/g
same,"AA RBC LS Mean, 1 or 2 g versus 4 g",[1]; 2 g versus 4 g,9.8 µg/g
same,"DGLA Plasma LS Mean, 1 or 2 g versus 4 g",[1]; 2 g versus 4 g,2.5 µg/g
same,"DGLA RBC LS Mean, 1 or 2 g versus 4 g",[1]; 2 g versus 4 g,1.5 µg/g
same,"DHA Plasma LS Mean, 1 or 2 g versus 4 g",[1]; 2 g versus 4 g,1.5 µg/g
same,"DHA RBC LS Mean, 1 or 2 g versus 4 g",[1]; 2 g versus 4 g,1.0 µg/g
same,"DPAn-3 Plasma LS Mean, 1 or 2 g versus 4 g",[1]; 2 g versus 4 g,-9.5 µg/g
same,"DPAn-3 RBC LS Mean, 1 or 2 g versus 4 g",[1]; 2 g versus 4 g,-2.5 µg/g
same,AA Plasma Mean (SD) change from Baseline,"[1]; 4 g daily, Day 14",−27.2 (28.89) μg/g
same,AA RBC Mean (SD) change from Baseline,"[1]; 4 g daily, Day 14",−15.7 (26.76) μg/g
same,DGLA Plasma Mean change from Baseline,"[1]; 4 g daily, Day 14",-22.9 µg/g
same,DGLA RBC Mean change from Baseline,"[1]; 4 g daily, Day 14",-5.3 µg/g
same,DHA Plasma Mean change from Baseline,"[1]; 4 g daily, Day 14",-10.3 µg/g
same,DHA RBC Mean change from Baseline,"[1]; 4 g daily, Day 14",-6.9 µg/g
same,DPAn-3 Plasma Mean change from Baseline,"[1]; 4 g daily, Day 14",24.5 µg/g
same,DPAn-3 RBC Mean change from Baseline,"[1]; 4 g daily, Day 14",5.4 µg/g
same,AA Plasma Mean (SD) change from Baseline,"[1]; 4 g daily, Day 28",−43.7 (32.24) μg/g
same,AA RBC Mean (SD) change from Baseline,"[1]; 4 g daily, Day 28",−22.8 (29.56) μg/g
same,DGLA Plasma Mean change from Baseline,"[1]; 4 g daily, Day 28",-24.2 µg/g
same,DGLA RBC Mean change from Baseline,"[1]; 4 g daily, Day 28",-7.1 µg/g
same,DHA Plasma Mean change from Baseline,"[1]; 4 g daily, Day 28",-13.5 µg/g
same,DHA RBC Mean change from Baseline,"[1]; 4 g daily, Day 28",-8.7 µg/g
same,DPAn-3 Plasma Mean change from Baseline,"[1]; 4 g daily, Day 28",29.7 µg/g
same,DPAn-3 RBC Mean change from Baseline,"[1]; 4 g daily, Day 28",12.4 µg/g
same,AA Plasma Mean (SD) change from Baseline,"[1]; 4 g daily, Day 42",−48.3 (22.20) μg/g
same,AA RBC Mean (SD) change from Baseline,"[1]; 4 g daily, Day 42",−34.4 (31.44) μg/g
same,DGLA Plasma Mean change from Baseline,"[1]; 4 g daily, Day 42",-22.5 µg/g
same,DGLA RBC Mean change from Baseline,"[1]; 4 g daily, Day 42",-8.0 µg/g
same,DHA Plasma Mean change from Baseline,"[1]; 4 g daily, Day 42",-13.8 µg/g
same,DHA RBC Mean change from Baseline,"[1]; 4 g daily, Day 42",-13.8 µg/g
same,DPAn-3 Plasma Mean change from Baseline,"[1]; 4 g daily, Day 42",32.0 µg/g
same,DPAn-3 RBC Mean change from Baseline,"[1]; 4 g daily, Day 42",16.2 µg/g
same,AA Plasma Baseline Mean (SD),"[1]; 4 g daily, baseline",220.9 (42.80) μg/g
same,AA RBC Baseline Mean (SD),"[1]; 4 g daily, baseline",171.0 (25.17) μg/g
same,DGLA Plasma Baseline Mean,"[1]; 4 g daily, baseline",57.1 µg/g
same,DGLA RBC Baseline Mean,"[1]; 4 g daily, baseline",24.0 µg/g
same,DHA Plasma Baseline Mean,"[1]; 4 g daily, baseline",78.8 µg/g
same,DHA RBC Baseline Mean,"[1]; 4 g daily, baseline",68.3 µg/g
same,DPAn-3 Plasma Baseline Mean,"[1]; 4 g daily, baseline",21.7 µg/g
same,DPAn-3 RBC Baseline Mean,"[1]; 4 g daily, baseline",34.5 µg/g
same,renal function,[2]; 4 g/day,no negative impact on renal function
same,Patients With TEAEs: Any TEAE,[2]; 4 g/day (n = 100),49 (49.0) n (%)
same,Patients With TEAEs: Arthralgia,[2]; 4 g/day (n = 100),1 (1.0) n (%)
same,Patients With TEAEs: Diarrhea,[2]; 4 g/day (n = 100),5 (5.0) n (%)
same,Patients With TEAEs: Nasopharyngitis,[2]; 4 g/day (n = 100),1 (1.0) n (%)
same,Patients With TEAEs: Nausea,[2]; 4 g/day (n = 100),3 (3.0) n (%)
same,patients discontinued due to adverse event,"[2]; 4 g/day group, 4 discontinued in total",3 n
same,serum creatinine after 12 weeks,"[2]; 4 g/day, before 0.9 mg/dL, no significant change",0.9 mg/dL
same,BUN after 12 weeks,"[2]; 4 g/day, before 18 mg/dL, no significant change",18 mg/dL
same,albumin after 12 weeks,"[2]; 4 g/day, before 4.5 g/dL, no significant change",4.5 g/dL
same,eGFR after 12 weeks,"[2]; 4 g/day, before 75.4, no significant change",79.1 mL/min/1.73 m^2
